Assay results taken from ChEMBL document CHEMBL3885861, “Open TG-GATES”.

Species: Rattus norvegicus
Assay: Open TG-GATES - Regimen: Daily Repeat
Type: toxicity, organism-based, Sprague-Dawley
Design: regimen Daily Repeat, gender Male, age 6 weeks
Details: in vivo, po, route gavage; for APTT / Bas / Eos / Fbg / Hb / Ht / Lym / MCHC / MCV / Mono / Neu / PT / Plat / RBC / Ret / WBC: tissue Blood; for KIDNEY_L / KIDNEY_R / KIDNEY_TOTAL: tissue Kidney; for LIVER: tissue Liver; for ALP / ALT / AST / BUN / CRE / Ca / Cl / DBIL / GLC / IP / K / LDH / Na / PL / RALB / TBIL / TC / TG / TP / gamma-GTP: tissue Plasma
[1] = 0 mg/kg, 72 h, dose level Control, time 3 day
[2] = 0 mg/kg, […], dose level Control, time 7 day
[3] = 0 mg/kg, […], dose level Control, time 14 day
[4] = 0 mg/kg, […], dose level Control, time 28 day
[5] = 10 mg/kg, 72 h, dose level Low, time 3 day
[6] = 10 mg/kg, […], dose level Low, time 7 day
[7] = 10 mg/kg, […], dose level Low, time 14 day
[8] = 10 mg/kg, […], dose level Low, time 28 day

CS(=O)(=O)Nc1ccc([N+](=O)[O-])cc1Oc1ccccc1 [NIMESULIDE]
TERMINAL_BW [1]: 220.1 g
APTT [1]: 17.3 s
Bas [1]: 0%
Eos [1]: 1%
Fbg [1]: 199.4 mg/dL
Hb [1]: 13.5 g/dL
Ht [1]: 39.9%
Lym [1]: 78%
MCHC [1]: 34%
MCV [1]: 62.8 fL
Mono [1]: 6.2%
Neu [1]: 14.8%
PT [1]: 11.7 s
Plat [1]: 127.5 x10_4/uL
RBC [1]: 635.6 x10_4/ul
Ret [1]: 9.2%
WBC [1]: 97.8 x10_2/uL
KIDNEY_L [1]: 1 g
KIDNEY_R [1]: 1 g
KIDNEY_TOTAL [1]: 2 g
LIVER [1]: 10.6 g
ALP [1]: 996 IU/L
ALT [1]: 36.8 IU/L
AST [1]: 63.6 IU/L
BUN [1]: 17.6 mg/dL
CRE [1]: 0.6 mg/dL
Ca [1]: 10.7 mg/dL
Cl [1]: 105 meq/L
DBIL [1]: 0.064 mg/dL
GLC [1]: 203 mg/dL
IP [1]: 7.5 mg/dL
K [1]: 4.7 meq/L
LDH [1]: 81.6 IU/L
Na [1]: 139.4 meq/L
PL [1]: 132.2 mg/dL
RALB [1]: 4 g/dL
TBIL [1]: 0.3 mg/dL
TC [1]: 69 mg/dL
TG [1]: 72.4 mg/dL
TP [1]: 5.5 g/dL
gamma-GTP [1]: 1.4 IU/L
TERMINAL_BW [2]: 249.3 g
TERMINAL_BW [3]: 309.7 g
TERMINAL_BW [4]: 405 g
APTT [2]: 18.3 s
Bas [2]: 0%
Eos [2]: 1%
Fbg [2]: 220 mg/dL
Hb [2]: 14.2 g/dL
Ht [2]: 41.6%
Lym [2]: 77.2%
MCHC [2]: 34.1%
MCV [2]: 64.8 fL
Mono [2]: 9.4%
Neu [2]: 12.6%
PT [2]: 11.3 s
Plat [2]: 117.6 x10_4/uL
RBC [2]: 642.4 x10_4/ul
Ret [2]: 7.2%
WBC [2]: 134.4 x10_2/uL
APTT [3]: 17.4 s
Bas [3]: 0%
Eos [3]: 1.2%
Fbg [3]: 234.2 mg/dL
Hb [3]: 14.7 g/dL
Ht [3]: 43.2%
Lym [3]: 79%
MCHC [3]: 34%
MCV [3]: 62.7 fL
Mono [3]: 6.2%
Neu [3]: 13.8%
PT [3]: 11.8 s
Plat [3]: 118.2 x10_4/uL
RBC [3]: 689.8 x10_4/ul
Ret [3]: 6.7%
WBC [3]: 118 x10_2/uL
APTT [4]: 17.4 s
Bas [4]: 0%
Eos [4]: 1.4%
Fbg [4]: 213.8 mg/dL
Hb [4]: 15.1 g/dL
Ht [4]: 44.6%
Lym [4]: 80.6%
MCHC [4]: 33.9%
MCV [4]: 58.6 fL
Mono [4]: 5.8%
Neu [4]: 12.4%
PT [4]: 11.7 s
Plat [4]: 126.5 x10_4/uL
RBC [4]: 761 x10_4/ul
Ret [4]: 2.7%
WBC [4]: 120.2 x10_2/uL
KIDNEY_L [2]: 1.1 g
KIDNEY_R [2]: 1.1 g
KIDNEY_TOTAL [2]: 2.2 g
KIDNEY_L [3]: 1.4 g
KIDNEY_R [3]: 1.3 g
KIDNEY_TOTAL [3]: 2.7 g
KIDNEY_L [4]: 1.4 g
KIDNEY_R [4]: 1.4 g
KIDNEY_TOTAL [4]: 2.8 g
LIVER [2]: 11.6 g
LIVER [3]: 14.5 g
LIVER [4]: 16.5 g
ALP [2]: 876.4 IU/L
ALT [2]: 35.4 IU/L
AST [2]: 64.2 IU/L
BUN [2]: 19.2 mg/dL
CRE [2]: 0.6 mg/dL
Ca [2]: 10.5 mg/dL
Cl [2]: 105.2 meq/L
DBIL [2]: 0.03 mg/dL
GLC [2]: 197.4 mg/dL
IP [2]: 7 mg/dL
K [2]: 5 meq/L
LDH [2]: 91.8 IU/L
Na [2]: 140.4 meq/L
PL [2]: 153.8 mg/dL
RALB [2]: 4 g/dL
TBIL [2]: 0.3 mg/dL
TC [2]: 79.2 mg/dL
TG [2]: 108.6 mg/dL
TP [2]: 5.7 g/dL
gamma-GTP [2]: 1.4 IU/L
ALP [3]: 898.6 IU/L
ALT [3]: 28.4 IU/L
AST [3]: 60 IU/L
BUN [3]: 17.4 mg/dL
CRE [3]: 0.5 mg/dL
Ca [3]: 10.7 mg/dL
Cl [3]: 106.4 meq/L
DBIL [3]: 0.002 mg/dL
GLC [3]: 199.4 mg/dL
IP [3]: 7.2 mg/dL
K [3]: 4.7 meq/L
LDH [3]: 54 IU/L
Na [3]: 140.6 meq/L
PL [3]: 141 mg/dL
RALB [3]: 4 g/dL
TBIL [3]: 0.3 mg/dL
TC [3]: 65.4 mg/dL
TG [3]: 124.4 mg/dL
TP [3]: 5.9 g/dL
gamma-GTP [3]: 1 IU/L
ALP [4]: 627.4 IU/L
ALT [4]: 29 IU/L
AST [4]: 61.8 IU/L
BUN [4]: 20.2 mg/dL
CRE [4]: 0.6 mg/dL
Ca [4]: 10.5 mg/dL
Cl [4]: 108.2 meq/L
DBIL [4]: 0.006 mg/dL
GLC [4]: 200 mg/dL
IP [4]: 6.6 mg/dL
K [4]: 4.7 meq/L
LDH [4]: 78 IU/L
Na [4]: 143.8 meq/L
PL [4]: 152 mg/dL
RALB [4]: 4.1 g/dL
TBIL [4]: 0.3 mg/dL
TC [4]: 73.2 mg/dL
TG [4]: 160.4 mg/dL
TP [4]: 6 g/dL
gamma-GTP [4]: 1.8 IU/L
TERMINAL_BW [5]: 219.5 g
APTT [5]: 16.3 s
Bas [5]: 0%
Eos [5]: 1.2%
Fbg [5]: 208.8 mg/dL
Hb [5]: 14 g/dL
Ht [5]: 41.3%
Lym [5]: 74.8%
MCHC [5]: 33.9%
MCV [5]: 63.4 fL
Mono [5]: 6.8%
Neu [5]: 17%
PT [5]: 11.4 s
Plat [5]: 114.4 x10_4/uL
RBC [5]: 651.8 x10_4/ul
Ret [5]: 10%
WBC [5]: 94 x10_2/uL
KIDNEY_L [5]: 1 g
KIDNEY_R [5]: 1 g
KIDNEY_TOTAL [5]: 1.9 g
LIVER [5]: 10.2 g
ALP [5]: 1001.2 IU/L
ALT [5]: 38.2 IU/L
AST [5]: 62.8 IU/L
BUN [5]: 18.8 mg/dL
CRE [5]: 0.6 mg/dL
Ca [5]: 10.8 mg/dL
Cl [5]: 103.6 meq/L
DBIL [5]: 0.056 mg/dL
GLC [5]: 195 mg/dL
IP [5]: 7.7 mg/dL
K [5]: 4.9 meq/L
LDH [5]: 105.6 IU/L
Na [5]: 139.4 meq/L
PL [5]: 145 mg/dL
RALB [5]: 4 g/dL
TBIL [5]: 0.3 mg/dL
TC [5]: 80 mg/dL
TG [5]: 75.8 mg/dL
TP [5]: 5.5 g/dL
gamma-GTP [5]: 1.2 IU/L
TERMINAL_BW [6]: 242.4 g
TERMINAL_BW [7]: 296.6 g
TERMINAL_BW [8]: 395.2 g
APTT [6]: 17.2 s
Bas [6]: 0%
Eos [6]: 1%
Fbg [6]: 220.8 mg/dL
Hb [6]: 14.3 g/dL
Ht [6]: 41.8%
Lym [6]: 75.2%
MCHC [6]: 34.2%
MCV [6]: 61.7 fL
Mono [6]: 8.2%
Neu [6]: 15.4%
PT [6]: 11.2 s
Plat [6]: 129.4 x10_4/uL
RBC [6]: 678.4 x10_4/ul
Ret [6]: 4.9%
WBC [6]: 103.5 x10_2/uL
APTT [7]: 17.9 s
Bas [7]: 0%
Eos [7]: 1%
Fbg [7]: 227.8 mg/dL
Hb [7]: 14.5 g/dL
Ht [7]: 42.4%
Lym [7]: 83.8%
MCHC [7]: 34.3%
MCV [7]: 62.7 fL
Mono [7]: 4.8%
Neu [7]: 10.8%
PT [7]: 11.8 s
Plat [7]: 117.1 x10_4/uL
RBC [7]: 676.2 x10_4/ul
Ret [7]: 5.6%
WBC [7]: 121.2 x10_2/uL
APTT [8]: 18.6 s
Bas [8]: 0%
Eos [8]: 1%
Fbg [8]: 214.2 mg/dL
Hb [8]: 15.2 g/dL
Ht [8]: 45%
Lym [8]: 80.8%
MCHC [8]: 33.9%
MCV [8]: 57.7 fL
Mono [8]: 6.4%
Neu [8]: 11.6%
PT [8]: 11.9 s
Plat [8]: 117.6 x10_4/uL
RBC [8]: 782.6 x10_4/ul
Ret [8]: 2.8%
WBC [8]: 102.3 x10_2/uL
KIDNEY_L [6]: 1.1 g
KIDNEY_R [6]: 1.1 g
KIDNEY_TOTAL [6]: 2.2 g
KIDNEY_L [7]: 1.2 g
KIDNEY_R [7]: 1.2 g
KIDNEY_TOTAL [7]: 2.4 g
KIDNEY_L [8]: 1.4 g
KIDNEY_R [8]: 1.4 g
KIDNEY_TOTAL [8]: 2.8 g
LIVER [6]: 11.6 g
LIVER [7]: 14.2 g
LIVER [8]: 16.7 g
ALP [6]: 890.6 IU/L
ALT [6]: 36.6 IU/L
AST [6]: 64.4 IU/L
BUN [6]: 20 mg/dL
CRE [6]: 0.5 mg/dL
Ca [6]: 10.5 mg/dL
Cl [6]: 105.4 meq/L
DBIL [6]: 0.016 mg/dL
GLC [6]: 200.8 mg/dL
IP [6]: 7.6 mg/dL
K [6]: 4.6 meq/L
LDH [6]: 97 IU/L
Na [6]: 140.4 meq/L
PL [6]: 159.6 mg/dL
RALB [6]: 4.1 g/dL
TBIL [6]: 0.3 mg/dL
TC [6]: 81.4 mg/dL
TG [6]: 97.8 mg/dL
TP [6]: 5.9 g/dL
gamma-GTP [6]: 1.4 IU/L
ALP [7]: 649.2 IU/L
ALT [7]: 30.6 IU/L
AST [7]: 63.6 IU/L
BUN [7]: 21 mg/dL
CRE [7]: 0.6 mg/dL
Ca [7]: 10.6 mg/dL
Cl [7]: 106.4 meq/L
DBIL [7]: 0 mg/dL
GLC [7]: 201.8 mg/dL
IP [7]: 7.1 mg/dL
K [7]: 4.6 meq/L
LDH [7]: 88.6 IU/L
Na [7]: 141 meq/L
PL [7]: 161 mg/dL
RALB [7]: 3.9 g/dL
TBIL [7]: 0.3 mg/dL
TC [7]: 78 mg/dL
TG [7]: 147.6 mg/dL
TP [7]: 5.9 g/dL
gamma-GTP [7]: 1.8 IU/L
ALP [8]: 745.8 IU/L
ALT [8]: 34.6 IU/L
AST [8]: 65.2 IU/L
BUN [8]: 20 mg/dL
CRE [8]: 0.6 mg/dL
Ca [8]: 10.6 mg/dL
Cl [8]: 108.4 meq/L
DBIL [8]: 0.004 mg/dL
GLC [8]: 197 mg/dL
IP [8]: 6.8 mg/dL
K [8]: 4.6 meq/L
LDH [8]: 95.2 IU/L
Na [8]: 144.2 meq/L
PL [8]: 147.2 mg/dL
RALB [8]: 4.1 g/dL
TBIL [8]: 0.3 mg/dL
TC [8]: 65.8 mg/dL
TG [8]: 167 mg/dL
TP [8]: 6.2 g/dL
gamma-GTP [8]: 1.8 IU/L
